Laboratory results published in ChEMBL document CHEMBL4354860, “Targeting the Regulatory Site of ER Aminopeptidase 1 Leads to the Discovery of a Natural Product Modulator of Antigen Presentation” (J Med Chem, 2020).

Target: Endoplasmic reticulum aminopeptidase 2 (Homo sapiens, UniProt Q6P179)
Assay: Activation of ERAP2 (unknown origin)-mediated Arg-AMC substrate hydrolysis after 60 mins by Rapidfire-MS analysis

Chain of Endoplasmic reticulum aminopeptidase 2 (Q6P179 whole entry): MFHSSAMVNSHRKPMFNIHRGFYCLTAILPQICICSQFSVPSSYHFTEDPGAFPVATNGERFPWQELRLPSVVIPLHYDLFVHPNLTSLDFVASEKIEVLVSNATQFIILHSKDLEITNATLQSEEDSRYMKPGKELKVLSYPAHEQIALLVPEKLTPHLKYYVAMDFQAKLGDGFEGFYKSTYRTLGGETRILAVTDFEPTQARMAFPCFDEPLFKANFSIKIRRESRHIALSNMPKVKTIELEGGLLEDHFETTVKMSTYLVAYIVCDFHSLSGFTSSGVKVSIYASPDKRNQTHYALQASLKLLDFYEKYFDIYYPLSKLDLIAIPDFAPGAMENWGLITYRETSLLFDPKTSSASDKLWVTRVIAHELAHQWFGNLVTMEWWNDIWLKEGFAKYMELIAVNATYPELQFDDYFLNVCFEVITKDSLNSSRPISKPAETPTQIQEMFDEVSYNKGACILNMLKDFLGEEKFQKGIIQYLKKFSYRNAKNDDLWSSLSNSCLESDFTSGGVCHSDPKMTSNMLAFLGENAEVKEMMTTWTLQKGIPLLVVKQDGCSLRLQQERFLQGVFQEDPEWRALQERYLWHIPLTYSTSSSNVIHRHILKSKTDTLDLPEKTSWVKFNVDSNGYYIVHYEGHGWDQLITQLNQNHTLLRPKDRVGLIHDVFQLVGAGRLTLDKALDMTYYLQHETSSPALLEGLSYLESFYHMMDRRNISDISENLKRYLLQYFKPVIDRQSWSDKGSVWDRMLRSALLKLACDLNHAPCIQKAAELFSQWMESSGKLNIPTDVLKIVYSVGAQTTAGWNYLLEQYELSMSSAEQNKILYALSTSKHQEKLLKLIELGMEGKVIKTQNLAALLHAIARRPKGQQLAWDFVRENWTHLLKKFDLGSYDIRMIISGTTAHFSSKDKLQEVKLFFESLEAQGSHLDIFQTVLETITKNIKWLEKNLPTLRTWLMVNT

IC50: > 158 µM
Structure (SMILES): C[C@@H]1C[C@H](O)[C@@]2(C)C(C(=O)O)=CCC[C@@H]2[C@@]1(C)CCc1ccoc1
